Assay results: patent publication US9592217B2, “Method for treating skin inflammatory diseases” (Olatec Therapeutics LLC, priority 2012, dated 2017)
Where two headings read alike, the source gives them in different places.

Key:
Format in all cases: in vivo
[1] = test system: arachidonic acid induced ear swelling; test: Topical arachidonic acid induced ear swelling model in mice; details: 30 min before and 15 min after arachidonic acid, measured at 90 minutes
Protocol: Purified 3-methanesulfonylpropionitrile was dissolved in vehicle (ethanol/acetone 1:1) to 5% (w/v). The active compound, indomethacin (positive control in vehicle), and vehicle were topically applied to mice and evaluated for anti-inflammatory activity in the topical arachidonic acid induced ear swelling model in mice, which is a model of irritant contact dermatitis.
Male ICR mice weighing 22±2 g were used and randomly divided; each group had 10 mice. Arachidonic Acid (0.5 mg in 20 μl of acetone:ethanol/1:1) was applied topically to the anterior and posterior surfaces of the right ear of each mice. Test substance and vehicle, as listed in Table 3 were similarly applied 30 min before and 15 min after arachidonic acid application. The thickness of the right ear and the left ear was measured and the difference calculated as an indication of the inflammation in the right ear. Ear swelling was measured by a Dyer model micrometer gauge at 60 and 90 minutes after arachidonic acid application as an index of inflammation. Percent inhibition was calculated according to the formula: Ic−It/Ic×100, where Ic and It refers to increase of ear thickness (mm) in control and treated mice, respectively. ANOVA and Dunnett's test were employed to ascertain significant difference between vehicle control and treated groups. Significance is set at P<0.05 level.

rats = test: Oral systemic toxicity in rats
[2] = Systemic (plasma) exposure after oral and subcutaneous administration to rats
Protocol: This study was done to determine the systemic (plasma) exposure of MSPN after administration by the oral and subcutaneous routes to rats.
MSPN substance was prepared in water for oral administration and in saline for subcutaneous administration. Rats weighed 282 to 295 g were used in the study. Male rats (n=2) were given a single dose at 50, 160 or 500 mg/kg by both oral and subcutaneous routes. Female rats (n=2) were dosed only at 500 mg/kg by both oral and subcutaneous routes. The blood was drawn from each rat at 0.25, 1, 2, 3, 4, 6, 12, 24, and 48 hours and measured for MSPN concentration by LC/MS/MS.

dogs = test: Oral systemic toxicity in dogs
[3] = decreased body temperature, decreased respiratory rate, increased blood pressure, increased heart rate

| Structure (SMILES) | % Inhibition of ear swelling ([1]; (0.5% w/v), 0.1 mg/20 μL) [%] | doses at which effects were seen, relative to expected human therapeutic doses (rats) | effects seen after oral, systemic toxicity administration (rats; [3]) | Cmax ([2]; rat, plasma, 500 mg/kg, heading: average maximum plasma concentration, male rats, oral, single dose 500 mg/kg, read-out: average maximum plasma concentration (Cmax)) [µg/mL] | Cmax ([2]; rat, plasma, sc, 500 mg/kg, heading: average Cmax, female rats, subcutaneous, single dose 500 mg/kg, read-out: average Cmax) [µg/mL] | Cmax ([2]; rat, plasma, sc, male rats, subcutaneous, single dose 50 mg/kg, read-out: average maximum plasma concentration (Cmax)) [µg/mL] | Cmax ([2]; rat, plasma, sc, male rats, subcutaneous, single dose 160 mg/kg, read-out: average maximum plasma concentration (Cmax)) [µg/mL] | Cmax ([2]; rat, plasma, sc, male rats, subcutaneous, single dose 500 mg/kg, read-out: average maximum plasma concentration (Cmax)) [µg/mL] | Cmax ([2]; rat, plasma, female rats, oral, single dose 500 mg/kg, read-out: average Cmax) [µg/mL] | Cmax ([2]; rat, plasma, male rats, oral, single dose 50 mg/kg, read-out: average maximum plasma concentration (Cmax)) [µg/mL] | Cmax ([2]; rat, plasma, male rats, oral, single dose 160 mg/kg, read-out: average maximum plasma concentration (Cmax)) [µg/mL] | half-life ([2]; rat, plasma, rats, both routes (oral, subcutaneous) and both sexes, read-out: Half-lives) [h] | bioavailability ([2]; rats, after both the oral and subcutaneous routes) | % Inhibition of ear swelling ([1]; 375 mM (5% w/v), 1 mg/20 μL) [%] | doses at which effects were seen, relative to expected human therapeutic doses (dogs) | effects seen after oral, systemic toxicity administration (dogs; [3]) |
| --- | --- | --- | --- | --- | --- | --- | --- | --- | --- | --- | --- | --- | --- | --- | --- | --- |
| COc1ccc2c(c1)c(CC(=O)O)c(C)n2C(=O)c1ccc(Cl)cc1 [Indomethacin, indomethacin, reference compound] | 53 |  |  |  |  |  |  |  |  |  |  |  |  |  |  |  |
| CS(=O)(=O)CCC#N [MSPN, 3-methanesulfonylpropionitrile] |  | over 2000 fold | mild physiological effects | 12 | 9.5 | 160 | 760 | 3300 | 3800 | 160 | 560 | 8 to 15 | significant bioavailability | 36 | over 2000 fold | mild physiological effects |
